We go through ten molecules from ChEMBL document CHEMBL3751822, “C1C2-linker substituted 1,5-naphthyridine analogues of oxabicyclooctane-linked NBTIs as broad-spectrum antibacterial agents (part 7)” (Medchemcomm, 2015).

≈ marks a conversion by molar mass, not a printed value.

Test [1] relates to Staphylococcus aureus. In words: Antibacterial activity against Staphylococcus aureus infected in iv dosed mouse. In kind it is functional.
Test [2] relates to Staphylococcus aureus. The experiment in a line: Antibacterial activity against Staphylococcus aureus infected in po dosed mouse. The test is classed as functional.
The test system of test [3] is Staphylococcus aureus. The experiment in a line: Antibacterial activity against quinolone-sensitive Staphylococcus aureus MS5935 by micro-broth dilution method. The test is classed as functional. On the technique in general: Broth dilution looks for growth in wells or tubes with falling amounts of substance.
Test [4] deals with Staphylococcus aureus. In words: Ratio of MIC for quinolone-resistant Staphylococcus aureus MS5935 to MIC for quinolone-sensitive Staphylococcus aureus MS5935. In kind it is functional.
The test system of test [5] is Staphylococcus aureus. The experiment in a line: Antibacterial activity against quinolone-resistant Staphylococcus aureus MS5935 by micro-broth dilution method. The test is classed as functional.
A further test concerns Enterococcus faecium. The experiment in a line: Antibacterial activity against Enterococcus faecium VanA by micro-broth dilution method. In kind it is functional. Particulars: Enterococcus faecium, VanA; read-out: MIC.
The subject of a further test is Streptococcus pneumoniae. The experiment in a line: Antibacterial activity against Streptococcus pneumoniae IID553 by micro-broth dilution method. Particulars: Streptococcus pneumoniae, IID553; read-out: MIC. The test is classed as functional.
A further test has as its system Pseudomonas aeruginosa. In words: Antibacterial activity against Pseudomonas aeruginosa PAO1 by micro-broth dilution method. In kind it is functional. The note with it: Pseudomonas aeruginosa, PAO1; read-out: MIC.
The test system of another test is Escherichia coli. In words: Antibacterial activity against Escherichia coli ATCC 25922 by micro-broth dilution method. The test is classed as functional. Particulars: Escherichia coli, ATCC 25922; read-out: MIC.
The test system of test [6] is Staphylococcus aureus. The experiment in a line: Antibacterial activity against Staphylococcus aureus Smith by micro-broth dilution method. In kind it is functional. The note with it: Staphylococcus aureus, Smith; read-out: MIC.
Test [7] deals with T1, Voltage-gated inwardly rectifying potassium channel KCNH2 (Homo sapiens, UniProt Q12809). The experiment in a line: Inhibition of human ERG expressed in CHO cells by patch express assay. The test is classed as cell-based.
T1 sequence (Q12809 whole entry): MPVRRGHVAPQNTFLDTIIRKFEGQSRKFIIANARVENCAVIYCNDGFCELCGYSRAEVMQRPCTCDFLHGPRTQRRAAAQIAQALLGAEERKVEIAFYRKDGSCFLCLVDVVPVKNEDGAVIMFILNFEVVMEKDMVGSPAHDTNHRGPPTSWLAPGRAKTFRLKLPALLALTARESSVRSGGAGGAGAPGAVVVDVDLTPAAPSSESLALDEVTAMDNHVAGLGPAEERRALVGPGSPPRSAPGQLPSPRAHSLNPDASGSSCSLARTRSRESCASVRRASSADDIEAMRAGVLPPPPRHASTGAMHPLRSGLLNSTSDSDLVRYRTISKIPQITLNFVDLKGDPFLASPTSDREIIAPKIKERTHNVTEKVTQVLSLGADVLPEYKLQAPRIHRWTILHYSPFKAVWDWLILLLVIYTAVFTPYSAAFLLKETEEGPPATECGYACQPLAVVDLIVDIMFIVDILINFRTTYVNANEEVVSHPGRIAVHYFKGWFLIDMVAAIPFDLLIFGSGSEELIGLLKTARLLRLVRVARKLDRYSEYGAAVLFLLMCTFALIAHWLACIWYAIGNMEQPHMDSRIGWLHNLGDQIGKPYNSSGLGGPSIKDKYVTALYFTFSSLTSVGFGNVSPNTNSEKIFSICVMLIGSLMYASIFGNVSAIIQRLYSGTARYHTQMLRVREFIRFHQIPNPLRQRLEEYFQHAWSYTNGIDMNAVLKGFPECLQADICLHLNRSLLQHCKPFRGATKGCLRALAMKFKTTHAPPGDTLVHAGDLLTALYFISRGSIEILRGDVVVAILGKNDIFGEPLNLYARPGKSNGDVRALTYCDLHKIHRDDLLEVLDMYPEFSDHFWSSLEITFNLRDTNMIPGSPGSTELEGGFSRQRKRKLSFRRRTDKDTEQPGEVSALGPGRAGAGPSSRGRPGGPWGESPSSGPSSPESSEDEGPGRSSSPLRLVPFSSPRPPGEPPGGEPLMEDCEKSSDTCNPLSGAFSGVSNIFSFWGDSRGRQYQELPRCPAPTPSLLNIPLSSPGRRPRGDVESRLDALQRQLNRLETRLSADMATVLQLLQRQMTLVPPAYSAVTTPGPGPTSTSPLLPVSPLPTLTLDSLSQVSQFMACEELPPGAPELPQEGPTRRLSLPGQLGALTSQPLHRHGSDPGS
Test [8] addresses T1, Voltage-gated inwardly rectifying potassium channel KCNH2. The experiment in a line: Displacement of MK499 from human ERG.
The test system of test [9] is Staphylococcus aureus. The experiment in a line: Antibacterial activity against methicillin resistant Staphylococcus aureus OIT971 by micro-broth dilution method. The test is classed as functional. Particulars: Staphylococcus aureus, OIT971; read-out: MIC.
The next test relates to Acinetobacter baumannii. In words: Antibacterial activity against Acinetobacter baumannii IID876 by micro-broth dilution method. The test is classed as functional. Particulars: Acinetobacter baumannii, IID876; read-out: MIC.
The mark [10] stands for this setting: Staphylococcus aureus, iv, read-out: ED50.
[11] abbreviates: Staphylococcus aureus, po, read-out: ED50.

Take `COc1ccc2ncc(F)c(CC(N)C34CCC(NCc5ccc6c(n5)NC(=O)CO6)(CC3)CO4)c2n1.Cl` (single isomer, unassigned; (+)): the median effective dose (ED50) (as a rule, the dose at which the effect has come halfway, by size or by number of responders) with Staphylococcus aureus [1] came to 25 mg/kg; with Staphylococcus aureus [2] it was 50 mg/kg.
For the molecule `COc1ccc2ncc(F)c(C[C@H](O)C34CCC(NCc5ccc6c(n5)NC(=O)CO6)(CC3)CO4)c2n1.Cl`, the 50% effective dose (ED50) was 2.5 mg/kg with Staphylococcus aureus [1] (setting [10]) and 2.2 mg/kg in the test with Staphylococcus aureus [2] (setting [11]).
For the molecule `C[C@H]1COc2c(N3CCN(C)CC3)c(F)cc3c(=O)c(C(=O)O)cn1c23.C[C@H]1COc2c(N3CCN(C)CC3)c(F)cc3c(=O)c(C(=O)O)cn1c23.O` [LEVOFLOXACIN], the MIC (usually the least concentration at which growth counts as inhibited) is 0.26 µg/mL with Staphylococcus aureus [3] and > 16 µg/mL in the test on Staphylococcus aureus [5]. In the test with Staphylococcus aureus [4], the Ratio is reported as >64.
In the case of `COc1ccc2ncc(F)c(C(=O)CC34CCC(NCc5ccc6c(n5)NC(=O)CO6)(CC3)CO4)c2n1`, the MIC in the test with Enterococcus faecium amounted to 2 µg/mL (≈ 3.94 µM); in the test with Streptococcus pneumoniae, 0.25 µg/mL (≈ 0.493 µM); in the test with Pseudomonas aeruginosa, 32 µg/mL (≈ 63.1 µM); in the test with Escherichia coli it was 4 µg/mL (≈ 7.88 µM); with Staphylococcus aureus [6] it was 0.06 µg/mL (≈ 0.118 µM); with Staphylococcus aureus [9], 0.06 µg/mL (≈ 0.118 µM). For the same molecule, the MIC in the test with Acinetobacter baumannii is 1 µg/mL (≈ 1.97 µM). The Ratio with Staphylococcus aureus [4] is reported as <4. Moreover, the IC50 (commonly the midpoint of a concentration-inhibition curve) in test [7] was 3.7 µM; in [8] it was 1.2 µM.
As to `COc1ccc2ncc(F)c(CC(N)C34CCC(NCc5ccc6c(n5)NC(=O)CO6)(CC3)CO4)c2n1.Cl` (stereo in doubt), the ED50 with Staphylococcus aureus [1] is 11 mg/kg; in the test with Staphylococcus aureus [2], 21 mg/kg.
For the molecule `COc1ccc2ncc(F)c(C(O)CC34CCC(NCc5ccc6c(n5)NC(=O)CO6)(CC3)CO4)c2n1.Cl` (single isomer, unassigned; (-)), the values for the 50% effective dose (ED50) in the test on Staphylococcus aureus [1] and with Staphylococcus aureus [2] were 3.7 mg/kg and 4.8 mg/kg, respectively.
`COc1ccc2ncc(F)c(C(O)CC34CCC(NCc5ccc6c(n5)NC(=O)CO6)(CC3)CO4)c2n1.Cl` (single isomer, unassigned; (+)): the ED50 is 5.9 mg/kg with Staphylococcus aureus [1] (setting [10]) and 6.4 mg/kg with Staphylococcus aureus [2] (setting [11]).
As for `COc1ccc2ncc(F)c([C@@H]3OC(=O)O[C@H]3C34CCC(NCc5ccc6c(n5)NC(=O)CO6)(CC3)CO4)c2n1` (single isomer, unassigned; (-)), the MIC in the test with Enterococcus faecium is 8 µg/mL (≈ 14.5 µM); in the test with Streptococcus pneumoniae, 2 µg/mL (≈ 3.63 µM); in the test on Pseudomonas aeruginosa, 16 µg/mL (≈ 29 µM); in the test with Escherichia coli it was 16 µg/mL (≈ 29 µM); with Staphylococcus aureus [6] it was 0.25 µg/mL (≈ 0.453 µM); in the test with Staphylococcus aureus [9], 0.25 µg/mL (≈ 0.453 µM). Besides, the MIC with Acinetobacter baumannii was 16 µg/mL (≈ 29 µM). Also, in the test with Staphylococcus aureus [4], the Ratio is given as <4. This molecule also came in with a half-maximal inhibitory concentration (IC50) in test [8] of 4.9 µM.
Consider `COc1ccc2ncc(F)c([C@@H](O)[C@H](O)C34CCC(NCc5ccc6c(n5)NC(=O)CO6)(CC3)CO4)c2n1`, for which the minimal inhibitory concentration (MIC) turned out to be 8 µg/mL (≈ 15.2 µM) in the test with Enterococcus faecium; 2 µg/mL (≈ 3.81 µM) in the test on Streptococcus pneumoniae; 32 µg/mL (≈ 60.9 µM) with Pseudomonas aeruginosa; 16 µg/mL (≈ 30.4 µM) in the test with Escherichia coli; 0.25 µg/mL (≈ 0.476 µM) in the test with Staphylococcus aureus [6]; 0.25 µg/mL (≈ 0.476 µM) with Staphylococcus aureus [9]. The MIC in the test on Acinetobacter baumannii worked out at 2 µg/mL (≈ 3.81 µM). Further, the Ratio in the test with Staphylococcus aureus [4] is listed as <4. The molecule also yielded an IC50 in test [8] of 60 µM.
As to `COc1ccc2ncc(F)c(CC(=O)C34CCC(NCc5ccc6c(n5)NC(=O)CO6)(CC3)CO4)c2n1.Cl`, the 50% effective dose (ED50) was 5.1 mg/kg in the test with Staphylococcus aureus [1] (setting [10]) and 6.4 mg/kg in the test with Staphylococcus aureus [2] (setting [11]).
